Reference: the kinase profiling compilation of Christmann-Franck et al. (2016)

Key:
Assay in all cases: radiometric filter-binding kinase assay, Kinase HotSpot
Settings in all cases: compound 0.5 µM; ATP 10 µM
[1] = biological target: AXL (human) (UniProt P30530)
[2] = biological target: CAMK2A (human) (UniProt Q9UQM7)
[3] = biological target: CDK1 CCNA2 (human) (UniProt P06493+P20248)
[4] = biological target: CDK4 CCND3 (human) (UniProt P30281+P11802)
[5] = biological target: CDK6 CCND3 (human) (UniProt P30281+Q00534)
[6] = biological target: CDK9 CCNT1 (human) (UniProt P50750+O60563)
[7] = biological target: CHEK1 (human) (UniProt O14757)
CHEK1 (human), sequence (O14757 whole entry, looked up): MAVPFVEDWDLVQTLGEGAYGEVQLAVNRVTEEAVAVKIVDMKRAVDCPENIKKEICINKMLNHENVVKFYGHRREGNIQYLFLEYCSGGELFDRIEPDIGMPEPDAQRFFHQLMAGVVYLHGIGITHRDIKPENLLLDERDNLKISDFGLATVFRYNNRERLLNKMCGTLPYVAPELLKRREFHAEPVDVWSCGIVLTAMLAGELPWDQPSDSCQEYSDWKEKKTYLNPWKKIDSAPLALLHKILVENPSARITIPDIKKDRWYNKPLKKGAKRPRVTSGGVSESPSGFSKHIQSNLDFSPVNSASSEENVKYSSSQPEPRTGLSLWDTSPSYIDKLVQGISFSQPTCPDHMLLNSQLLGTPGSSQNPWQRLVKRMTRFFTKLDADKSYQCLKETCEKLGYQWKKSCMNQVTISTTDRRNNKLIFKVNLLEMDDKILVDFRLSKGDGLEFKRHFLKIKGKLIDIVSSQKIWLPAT

[8] = biological target: CSNK1A1 (human) (UniProt P48729)
[9] = biological target: CSNK2A2 (human) (UniProt P19784)
[10] = biological target: EPHA8 (human) (UniProt P29322)
[11] = biological target: ERBB2 (human) (UniProt P04626)
[12] = biological target: FER (human) (UniProt P16591)
[13] = biological target: FLT3 (human) (UniProt P36888)
FLT3 (human), sequence (P36888 whole entry, looked up): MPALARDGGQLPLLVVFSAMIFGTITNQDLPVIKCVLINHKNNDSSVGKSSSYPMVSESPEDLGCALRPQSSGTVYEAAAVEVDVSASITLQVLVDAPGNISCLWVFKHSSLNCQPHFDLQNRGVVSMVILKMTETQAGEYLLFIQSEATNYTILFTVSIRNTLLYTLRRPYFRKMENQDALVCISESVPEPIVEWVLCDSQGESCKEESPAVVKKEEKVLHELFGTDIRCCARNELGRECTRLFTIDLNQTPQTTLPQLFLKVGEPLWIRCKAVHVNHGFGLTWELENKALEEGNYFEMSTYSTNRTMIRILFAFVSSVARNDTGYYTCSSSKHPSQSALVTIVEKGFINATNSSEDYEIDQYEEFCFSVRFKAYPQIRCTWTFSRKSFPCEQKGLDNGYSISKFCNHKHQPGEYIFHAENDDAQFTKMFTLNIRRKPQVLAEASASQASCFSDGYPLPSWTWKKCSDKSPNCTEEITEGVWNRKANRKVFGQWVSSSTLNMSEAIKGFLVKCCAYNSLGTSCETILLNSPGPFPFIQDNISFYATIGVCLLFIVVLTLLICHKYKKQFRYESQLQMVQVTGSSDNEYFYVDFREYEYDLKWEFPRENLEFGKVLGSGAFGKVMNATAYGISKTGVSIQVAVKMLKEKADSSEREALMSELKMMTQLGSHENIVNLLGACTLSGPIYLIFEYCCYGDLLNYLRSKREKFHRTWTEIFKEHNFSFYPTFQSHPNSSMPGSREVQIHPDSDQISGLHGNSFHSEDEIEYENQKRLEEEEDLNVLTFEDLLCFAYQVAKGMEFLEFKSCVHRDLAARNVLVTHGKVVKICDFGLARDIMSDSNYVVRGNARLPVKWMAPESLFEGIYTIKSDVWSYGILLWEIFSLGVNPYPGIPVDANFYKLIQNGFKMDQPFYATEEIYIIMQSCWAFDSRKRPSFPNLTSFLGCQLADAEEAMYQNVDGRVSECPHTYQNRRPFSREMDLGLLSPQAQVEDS

[14] = biological target: FYN (human) (UniProt P06241)
[15] = biological target: GRK4 (human) (UniProt P32298)
[16] = biological target: GRK5 (human) (UniProt P34947)
[17] = biological target: GRK6 (human) (UniProt P43250)
GRK6 (human), sequence (P43250 whole entry, looked up): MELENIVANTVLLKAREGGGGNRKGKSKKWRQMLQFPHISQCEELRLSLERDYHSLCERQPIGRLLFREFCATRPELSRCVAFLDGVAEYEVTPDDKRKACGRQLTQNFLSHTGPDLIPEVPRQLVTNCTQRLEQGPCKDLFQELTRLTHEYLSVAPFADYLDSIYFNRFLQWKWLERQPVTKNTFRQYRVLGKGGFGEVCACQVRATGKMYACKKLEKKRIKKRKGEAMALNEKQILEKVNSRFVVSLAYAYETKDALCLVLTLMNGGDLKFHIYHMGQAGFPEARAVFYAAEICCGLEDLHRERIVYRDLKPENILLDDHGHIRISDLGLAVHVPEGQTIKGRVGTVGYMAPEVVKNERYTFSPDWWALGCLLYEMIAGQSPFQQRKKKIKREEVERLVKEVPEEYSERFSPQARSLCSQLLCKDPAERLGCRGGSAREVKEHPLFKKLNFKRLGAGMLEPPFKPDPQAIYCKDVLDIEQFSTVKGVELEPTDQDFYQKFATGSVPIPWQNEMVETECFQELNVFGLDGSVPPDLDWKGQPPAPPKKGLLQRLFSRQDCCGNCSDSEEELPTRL

[18] = biological target: GSG2 (human) (UniProt Q8TF76)
[19] = biological target: GSK3B (human) (UniProt P49841)
[20] = biological target: MAPK11 (human) (UniProt Q15759)
[21] = biological target: MAPK12 (human) (UniProt P53778)
[22] = biological target: MAPK13 (human) (UniProt O15264)
MAPK13 (human), sequence (O15264 whole entry, looked up): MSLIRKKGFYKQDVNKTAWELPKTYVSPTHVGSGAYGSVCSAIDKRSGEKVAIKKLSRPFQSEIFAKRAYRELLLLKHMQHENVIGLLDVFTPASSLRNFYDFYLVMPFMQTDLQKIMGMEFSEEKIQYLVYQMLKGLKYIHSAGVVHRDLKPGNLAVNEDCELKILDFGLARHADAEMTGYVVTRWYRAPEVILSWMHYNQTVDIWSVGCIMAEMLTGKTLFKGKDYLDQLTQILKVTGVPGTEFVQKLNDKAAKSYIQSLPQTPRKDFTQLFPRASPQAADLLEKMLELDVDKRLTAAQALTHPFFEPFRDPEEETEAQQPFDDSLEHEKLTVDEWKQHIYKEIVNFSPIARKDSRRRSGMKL

[23] = biological target: MAPK14 (human) (UniProt Q16539)
[24] = biological target: MAPK3 (human) (UniProt P27361)
[25] = biological target: MAPK9 (human) (UniProt P45984)
[26] = biological target: MARK4 (human) (UniProt Q96L34)
MARK4 (human), sequence (Q96L34 whole entry, looked up): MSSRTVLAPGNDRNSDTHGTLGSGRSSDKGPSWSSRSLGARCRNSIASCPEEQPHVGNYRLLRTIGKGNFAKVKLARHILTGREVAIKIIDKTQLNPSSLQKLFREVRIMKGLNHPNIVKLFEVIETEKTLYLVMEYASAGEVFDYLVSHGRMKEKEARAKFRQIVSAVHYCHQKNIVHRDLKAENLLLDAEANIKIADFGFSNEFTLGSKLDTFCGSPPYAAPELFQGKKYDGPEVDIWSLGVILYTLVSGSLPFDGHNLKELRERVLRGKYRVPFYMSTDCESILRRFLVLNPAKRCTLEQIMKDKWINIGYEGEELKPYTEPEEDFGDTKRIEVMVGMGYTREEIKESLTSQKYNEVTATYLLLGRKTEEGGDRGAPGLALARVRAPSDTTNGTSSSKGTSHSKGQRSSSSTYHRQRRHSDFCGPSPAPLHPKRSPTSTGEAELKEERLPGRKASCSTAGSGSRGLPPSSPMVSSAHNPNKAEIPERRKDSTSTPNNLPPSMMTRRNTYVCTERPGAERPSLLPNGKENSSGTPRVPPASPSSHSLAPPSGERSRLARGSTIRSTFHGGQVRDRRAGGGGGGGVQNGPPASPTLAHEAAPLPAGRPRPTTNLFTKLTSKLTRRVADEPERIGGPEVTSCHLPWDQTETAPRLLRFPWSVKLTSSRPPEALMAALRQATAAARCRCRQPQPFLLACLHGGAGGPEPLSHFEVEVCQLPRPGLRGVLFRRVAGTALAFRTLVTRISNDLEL

[27] = biological target: MET (human) (UniProt P08581)
[28] = biological target: PBK (human) (UniProt Q96KB5)
[29] = biological target: PIM3 (human) (UniProt Q86V86)
[30] = biological target: PRKCG (human) (UniProt P05129)
[31] = biological target: PRKCI (human) (UniProt P41743)
[32] = biological target: PTK2B (human) (UniProt Q14289)
[33] = biological target: RAF1 (human) (UniProt P04049)
[34] = biological target: RET (human) (UniProt P07949)
[35] = biological target: RPS6KA4 KD2 (human) (UniProt O75676)
[36] = biological target: RPS6KA5 KD2 (human) (UniProt O75582)
[37] = biological target: SGK2 (human) (UniProt Q9HBY8)
[38] = biological target: SGK3 (human) (UniProt Q96BR1)
[39] = biological target: STK24 (human) (UniProt Q9Y6E0)
[40] = biological target: STK4 (human) (UniProt Q13043)
[41] = biological target: TYK2 JH1 catalytic (human) (UniProt P29597)
[42] = biological target: VRK1 (human) (UniProt Q99986)

AXL (human), sequence (P30530 whole entry, looked up): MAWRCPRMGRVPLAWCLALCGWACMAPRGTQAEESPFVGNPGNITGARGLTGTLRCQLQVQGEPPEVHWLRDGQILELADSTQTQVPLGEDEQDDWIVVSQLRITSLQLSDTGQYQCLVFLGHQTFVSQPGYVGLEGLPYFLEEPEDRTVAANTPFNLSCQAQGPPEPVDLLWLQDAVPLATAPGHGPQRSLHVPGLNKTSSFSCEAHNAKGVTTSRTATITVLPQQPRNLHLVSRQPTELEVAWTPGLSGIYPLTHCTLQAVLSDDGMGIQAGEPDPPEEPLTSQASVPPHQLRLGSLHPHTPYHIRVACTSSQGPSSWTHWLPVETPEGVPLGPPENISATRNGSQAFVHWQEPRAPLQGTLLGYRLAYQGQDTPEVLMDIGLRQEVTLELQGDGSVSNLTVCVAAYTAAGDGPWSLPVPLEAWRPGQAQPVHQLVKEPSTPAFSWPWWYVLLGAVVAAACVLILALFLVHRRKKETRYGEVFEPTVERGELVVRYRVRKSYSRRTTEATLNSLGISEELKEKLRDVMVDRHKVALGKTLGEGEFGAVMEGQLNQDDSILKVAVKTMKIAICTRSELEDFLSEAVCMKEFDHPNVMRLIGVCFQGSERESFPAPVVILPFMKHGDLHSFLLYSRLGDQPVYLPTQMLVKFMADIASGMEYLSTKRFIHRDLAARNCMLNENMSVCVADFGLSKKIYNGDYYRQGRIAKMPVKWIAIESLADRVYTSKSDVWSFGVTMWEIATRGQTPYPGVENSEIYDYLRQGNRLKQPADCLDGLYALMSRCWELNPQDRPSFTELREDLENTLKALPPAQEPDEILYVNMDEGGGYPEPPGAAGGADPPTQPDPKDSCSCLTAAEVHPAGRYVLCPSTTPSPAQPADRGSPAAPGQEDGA
CDK1 CCNA2 (human), sequence (P06493 whole entry, looked up): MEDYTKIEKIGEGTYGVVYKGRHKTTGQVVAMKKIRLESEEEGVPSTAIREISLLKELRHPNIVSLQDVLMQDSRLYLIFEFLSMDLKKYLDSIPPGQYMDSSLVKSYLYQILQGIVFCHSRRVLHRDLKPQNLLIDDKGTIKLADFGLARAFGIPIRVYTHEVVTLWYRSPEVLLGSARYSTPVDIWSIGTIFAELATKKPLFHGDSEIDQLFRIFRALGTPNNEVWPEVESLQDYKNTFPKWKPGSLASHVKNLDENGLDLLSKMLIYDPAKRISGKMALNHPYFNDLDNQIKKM
CDK1 CCNA2 (human), sequence (P20248 whole entry, looked up): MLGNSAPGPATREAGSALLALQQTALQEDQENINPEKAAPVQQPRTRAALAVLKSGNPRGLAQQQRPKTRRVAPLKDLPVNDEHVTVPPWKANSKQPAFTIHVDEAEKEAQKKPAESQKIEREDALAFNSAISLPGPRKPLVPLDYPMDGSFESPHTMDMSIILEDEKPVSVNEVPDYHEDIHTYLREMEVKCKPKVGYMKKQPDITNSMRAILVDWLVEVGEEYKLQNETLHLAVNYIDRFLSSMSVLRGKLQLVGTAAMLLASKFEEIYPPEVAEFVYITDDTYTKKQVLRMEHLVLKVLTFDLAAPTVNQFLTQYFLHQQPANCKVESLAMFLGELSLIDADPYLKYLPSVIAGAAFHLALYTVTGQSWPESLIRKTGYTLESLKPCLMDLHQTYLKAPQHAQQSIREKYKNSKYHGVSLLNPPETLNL

SMILES: O=C1NC(=O)c2c1c1c3ccccc3[nH]c1c1[nH]c3cc(Br)ccc3c21
- residual activity [1]: 82.9%
- residual activity [2]: 78.3%
- residual activity [3]: 91.9%
- residual activity [4]: 21.1%
- residual activity [5]: 40.2%
- residual activity [6]: 87.5%
- residual activity [7]: 79.7%
- residual activity [8]: 95.4%
- residual activity [9]: 93.2%
- residual activity [10]: 102%
- residual activity [11]: 101%
- residual activity [12]: 88.9%
- residual activity [13]: 8.19%
- residual activity [14]: 95.2%
- residual activity [15]: 99.8%
- residual activity [16]: 97%
- residual activity [17]: 108%
- residual activity [18]: 72.9%
- residual activity [19]: 63.7%
- residual activity [20]: 93.6%
- residual activity [21]: 100%
- residual activity [22]: 99.1%
- residual activity [23]: 90.6%
- residual activity [24]: 108%
- residual activity [25]: 99.6%
- residual activity [26]: 38.7%
- residual activity [27]: 76.6%
- residual activity [28]: 86.3%
- residual activity [29]: 4.69%
- residual activity [30]: 76.6%
- residual activity [31]: 96.2%
- residual activity [32]: 79.5%
- residual activity [33]: 97.8%
- residual activity [34]: 80.1%
- residual activity [35]: 75.9%
- residual activity [36]: 76.1%
- residual activity [37]: 68.5%
- residual activity [38]: 97.2%
- residual activity [39]: 80.1%
- residual activity [40]: 52%
- residual activity [41]: 81.1%
- residual activity [42]: 92.3%
